From EP0241395A2, “Sweeteners derived from n-phenylguanidinoacetic and n-phenylethananamidinacetic acids, and compositions containing such sweeteners” (UNIVERSITE CLAUDE BERNARD - LYON 1, priority 1986, dated 1987)

Tested on: groupe de huit goûteurs expérimentés
Experiment: Sweetening power judged by a panel of eight experienced tasters against a sucrose reference solution
Assay type: in vivo
Details: weight basis; for Pouvoir édulcorant: Table II, relative to a 2 % sucrose solution; for pouvoir édulcorant, sur une base pondérale: approximate
Text: Le pouvoir édulcorant des composés préparés dans les exemples suivants a été évalué par un groupe de huit goûteurs expérimentés. Pour cela, les composés, en solution aqueuse à des concentrations variables, sont comparés, sur le plan gustatif, à une solution témoin de saccharose à 2 % et dans certains cas à 5 % et 10 %, c'est-à-dire à des concentrations correspondant à celles utilisées lors d'un usage courant. Le pouvoir sucrant des édulcorants de synthèse varie en effet suivant la concentration de la solution de saccharose utilisée comme référence. Le pouvoir édulcorant du composé testé par rapport au saccharose correspond alors au rapport pondéral qui existe entre le composé et le saccharose à égale intensité édulcorante, c'est-à-dire quand les saveurs sucrées de la solution du composé testé et de la solution témoin de saccharose sont considérées, par une majorité de goûteurs, avoir la même intensité édulcorante.

[1] = by comparison with a 2 % sucrose solution
[2] = by comparison with a 5 % sucrose solution
[3] = by comparison with a 10 % sucrose solution

SMILES	Pouvoir édulcorant	pouvoir édulcorant, sur une base pondérale [1]	pouvoir édulcorant, sur une base pondérale [2]	pouvoir édulcorant, sur une base pondérale [3]
C[C@H](NC(=Nc1cccc(Cl)c1)NCC(=O)O)c1ccccc1 [Exemple 6, acide N-[N-(S)-α-méthylbenzylamino (3-chlorophénylimino)méthyl]-2-aminoéthanoïque]	30000	~30 000 fois celui du saccharose	–	–
N#Cc1ccc(N=C(NCC(=O)O)NN2CCOCC2)cc1 [Exemple 77, acide N-[N-morpholinoamino(4-cyano-phénylimino)méthyl]-2-aminoéthanoïque]	950	~950 fois celui du saccharose	–	–
C[C@H](NC(=Nc1cc(Cl)c(Cl)c(Cl)c1)NCC(=O)O)c1ccccc1 [Exemple 28, acide N-[N-(S)-α-méthylbenzylamino (3,4,5-trichlorophénylimino)méthyl]-2-aminoéthanoïque]	35000	~35 000 fois celui du saccharose	–	–
Cc1cc(NC(=NC2CCCCCCC2)NCC(=O)O)ccc1C#N [Exemple 48, acide N-[N-cyclooctylamino(4-cyano-3-méthylphénylimino)méthyl]-2-aminoéthanoïque]	80000	~80 000 fois celui du saccharose	–	–
C[C@H](NC(=Nc1ccc(O)cc1)NCC(=O)O)c1ccccc1 [Exemple 20, acide N-[N-(S)-α-méthylbenzylamino (4-hydroxyphénylimino)méthyl]-2-aminoéthanoïque]	400	~400 fois celui du saccharose	–	–
C[C@H](NC(=Nc1cccc([N+](=O)[O-])c1)NCC(=O)O)c1ccccc1 [Exemple 8, acide N-[N-(S)-α-méthylbenzylamino (3-nitrophénylimino)méthyl] -2-aminoéthanoique]	6000	~6 000 fois celui du saccharose	–	–
CSc1ccc(N=C(NCC(=O)O)N[C@@H](C)c2ccccc2)cc1 [Exemple 21, acide N-[N-(S)-a-méthylbenzylamino (4-méthylmercaptophénylimino)méthyl)-2-aminoéthanoïque]	1200	~1200 times sucrose	–	–
O=C(O)CNC(=NS(=O)(=O)c1ccccc1)Nc1cccc(Cl)c1 [Exemple 79, acide N-[phénylsulfonylimino (3-chlorophénylamino)méthyl]-2-aminoéthanoique]	17000	~17 000 fois celui du saccharose	–	–
O=C(O)CNC(=Nc1ccc([N+](=O)[O-])cc1)NCC1CCCCC1 [Exemple 62, acide N-[N-cyclohexylméthylamino(4-nitrophénylimino)méthyl]-2-aminoéthanoïque]	8000	~8 000 fois celui du saccharose	~7 500 fois celui du saccharose	~4 000 fois celui du saccharose
N#Cc1ccc(N=C(NCC(=O)O)Nc2ccc3c(c2)OCO3)cc1 [Exemple 75, acide N-[N-(3,4-méthylènedioxyphényl)amino(4-cyanophénylimino)méthyl]-2-aminoéthanoïque]	5000	~5 000 fois celui du saccharose	–	–
C[C@@H](NC(=Nc1ccc(C#N)cc1)NCC(=O)O)c1ccccc1 [Exemple 54, acide N-[N-(R)-a-méthylbenzylamino (4-cyanophénylimino)méthyl]-2-aminoéthanoïque]	9000	~9 000 fois celui du saccharose	~6600 times sucrose	~2 500 fois celui du saccharose
N#Cc1ccc(N=C(NCC(=O)O)NC2CCCCC2)cc1 [Exemple 43, acide N-[N-cyclohexylamino(4-cyanophénylimino)méthyl]-2-aminoéthanoïque]	12000	~12 000 fois celui du saccharose	~10 500 fois celui du saccharose	~8 500 fois celui du saccharose
C[C@H](NC(=Nc1cccc(C#N)c1)NCC(=O)O)c1ccccc1 [Exemple 7, acide N-[N-(S)-α-méthylbenzylamino (3-cyanophénylimino)méthyl]-2-aminoéthanoïque]	5 500	~5 500 fois celui du saccharose	–	–
N#CC(C#N)=C(NCC(=O)O)Nc1cc(Cl)cc(Cl)c1 [Exemple 30, acide N-[2,2-dicyano(3,5-dichlorophénylamino)éthényl]-2-aminoéthanoïque]	30	–	–	–
C[C@@H](NC(=Nc1ccc(C#N)cc1)NC1CCCCC1)C(=O)O [Exemple 85, acide (R)-N-[N-cyclohexylamino (4-cyanophénylimino)méthyl]-2-aminopropanoïque]	100	~100 fois celui du saccharose	–	–
O=C(O)CNC(=Nc1ccccc1)Nc1ccccc1 [Exemple 40, acide N-[N-phénylamino(phénylimino)méthyl]-2-aminoéthanoique]	500	~500 fois celui du saccharose	–	–
COc1cc(NC(=N[C@@H](C)c2ccccc2)NCC(=O)O)cc(C(F)(F)F)c1 [Exemple 24, acide N-[N-(S)-α-méthylbenzylamino (3-trifluorométhyl-5-méthoxyphénylimino)méthyl]-2-amino-éthanoïque]	7000	~7 000 fois celui du saccharose	–	–
N#Cc1ccc(N=C(NCC(=O)O)Nc2cccc3ccccc23)cc1 [Exemple 69, acide N-[N-1-naphtylamino(4-cyanophénylimino)méthyl)-2-aminoéthanoïque]	60000	~60 000 fois celui du saccharose	–	–
N#Cc1ccc(N=C(NCC(=O)O)N2CCCC2)cc1 [Exemple 82, acide N-[N,N-(tétraméthylène)amino (4-cyanophénylimino)méthyl]-2-aminoéthanoïque]	100	~100 fois celui du saccharose	–	–
O=C(O)CNC(=Nc1ccccc1)NCC1CCCCC1 [Exemple 55, acide N-[N-cyclohexylméthylamino (phénylimino)méthyl]-2-aminoéthanoïque]	3 300	~3 300 fois celui du saccharose	~2 500 fois celui du saccharose	~2 000 fois celui du saccharose
CCN(Cc1ccccc1)C(=Nc1ccc(C#N)cc1)NCC(=O)O [Exemple 34, acide N-[N-éthyl-N-benzylamino (4-cyanophénylimino)méthyl]-2-aminoéthanoïque]	3000	~3 000 fois celui du saccharose	–	–
N#Cc1ccc(N=C(NCC(=O)O)Nc2cccc(Cl)c2)cc1 [Exemple 80, acide N-[N-(3-chlorophényl)amino(4-cyanophénylimino)méthyl]-2-aminoéthanoïque]	10000	–	–	–
C[C@H](NC(=Nc1cc(Cl)cc(Cl)c1)NCC(=O)O)c1ccccc1 [Exemple 26, acide N-[N-(S)-α-méthylbenzylamino (3,5-dichlorophénylimino)méthyl]-2-aminoéthanoïque]	120000	~120 000 fois celui du saccharose	~90 000 fois celui du saccharose	~50 000 fois celui du saccharose
